Test results reported in PubChem BioAssay (NCI).
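Interpolation was linear, between the two tested concentrations surrounding the appropriate level; five concentrations were tested over 48 hours in 96-well plates. Here, GI50 denotes the concentration required for 50% inhibition of growth. TGI denotes the concentration required for complete inhibition of growth.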

Columns and labels:
Assay in all cases: NCI-60 cell line screen, 48 h
786-0 renal = tested on: 786-0 renal
A549 NSCLC = tested on: A549 NSCLC
ACHN renal = tested on: ACHN renal
BT-549 breast = tested on: BT-549 breast
CAKI-1 renal = tested on: CAKI-1 renal
COLO 205 colon = tested on: COLO 205 colon
EKVX NSCLC = tested on: EKVX NSCLC
HCT-116 colon = tested on: HCT-116 colon
HCT-15 colon = tested on: HCT-15 colon
HL-60(TB) leukemia = tested on: HL-60(TB) leukemia
HOP-62 NSCLC = tested on: HOP-62 NSCLC
HOP-92 NSCLC = tested on: HOP-92 NSCLC
HT29 colon = tested on: HT29 colon
IGROV1 ovarian = tested on: IGROV1 ovarian
K-562 leukemia = tested on: K-562 leukemia
KM12 colon = tested on: KM12 colon
LOX IMVI melanoma = tested on: LOX IMVI melanoma
M14 melanoma = tested on: M14 melanoma
MCF7 breast = tested on: MCF7 breast
MDA-MB-231 breast = tested on: MDA-MB-231 breast
NCI-H226 lung = tested on: NCI-H226 lung
NCI-H23 lung = tested on: NCI-H23 lung
NCI-H460 lung = tested on: NCI-H460 lung
NCI-H522 lung = tested on: NCI-H522 lung
OVCAR-3 ovarian = tested on: OVCAR-3 ovarian
OVCAR-5 ovarian = tested on: OVCAR-5 ovarian
OVCAR-8 ovarian = tested on: OVCAR-8 ovarian
PC-3 prostate = tested on: PC-3 prostate
RXF 393 renal = tested on: RXF 393 renal
SF-268 CNS = tested on: SF-268 CNS
SF-295 CNS = tested on: SF-295 CNS
SK-MEL-2 melanoma = tested on: SK-MEL-2 melanoma
SK-MEL-28 melanoma = tested on: SK-MEL-28 melanoma
SK-MEL-5 melanoma = tested on: SK-MEL-5 melanoma
SN12C renal = tested on: SN12C renal
SNB-19 CNS = tested on: SNB-19 CNS
SW-620 colon = tested on: SW-620 colon
T-47D breast = tested on: T-47D breast
TK-10 renal = tested on: TK-10 renal
U251 CNS = tested on: U251 CNS
UACC-257 melanoma = tested on: UACC-257 melanoma
UACC-62 melanoma = tested on: UACC-62 melanoma
UO-31 renal = tested on: UO-31 renal

O=C(Oc1c(Cl)cc(Cl)cc1Cl)c1ccccc1Nc1ccnc(C(F)(F)F)c1
GI50 (786-0 renal): 2.95 µM
TGI (786-0 renal): 11.1 µM
GI50 (A549 NSCLC): 3.9 µM
TGI (A549 NSCLC): 71.5 µM
GI50 (ACHN renal): 2.46 µM
TGI (ACHN renal): 6.52 µM
GI50 (BT-549 breast): 2.42 µM
TGI (BT-549 breast): 6.98 µM
GI50 (CAKI-1 renal): 7.12 µM
TGI (CAKI-1 renal): > 100 µM
GI50 (COLO 205 colon): 6.24 µM
TGI (COLO 205 colon): > 100 µM
GI50 (EKVX NSCLC): 3.31 µM
TGI (EKVX NSCLC): 13 µM
GI50 (HCT-116 colon): 1.72 µM
TGI (HCT-116 colon): 4.28 µM
GI50 (HCT-15 colon): 2.7 µM
TGI (HCT-15 colon): 10.6 µM
GI50 (HL-60(TB) leukemia): 3.97 µM
TGI (HL-60(TB) leukemia): > 100 µM
GI50 (HOP-62 NSCLC): 2.66 µM
TGI (HOP-62 NSCLC): 8.8 µM
GI50 (HOP-92 NSCLC): > 100 µM
TGI (HOP-92 NSCLC): > 100 µM
GI50 (HT29 colon): 4.59 µM
TGI (HT29 colon): > 100 µM
GI50 (IGROV1 ovarian): > 100 µM
TGI (IGROV1 ovarian): > 100 µM
GI50 (K-562 leukemia): 2.42 µM
TGI (K-562 leukemia): > 100 µM
GI50 (KM12 colon): 4.11 µM
TGI (KM12 colon): 32.5 µM
GI50 (LOX IMVI melanoma): 1.99 µM
TGI (LOX IMVI melanoma): 5.13 µM
GI50 (M14 melanoma): 2.13 µM
TGI (M14 melanoma): 4.99 µM
GI50 (MCF7 breast): 4.68 µM
TGI (MCF7 breast): > 100 µM
GI50 (MDA-MB-231 breast): 3.25 µM
TGI (MDA-MB-231 breast): 18.9 µM
GI50 (NCI-H226 lung): 5.93 µM
TGI (NCI-H226 lung): 24.6 µM
GI50 (NCI-H23 lung): 2.59 µM
TGI (NCI-H23 lung): 6.3 µM
GI50 (NCI-H460 lung): 3.38 µM
TGI (NCI-H460 lung): > 100 µM
GI50 (NCI-H522 lung): 5.7 µM
TGI (NCI-H522 lung): > 100 µM
GI50 (OVCAR-3 ovarian): 4.3 µM
TGI (OVCAR-3 ovarian): > 100 µM
GI50 (OVCAR-5 ovarian): 4.1 µM
TGI (OVCAR-5 ovarian): 16.5 µM
GI50 (OVCAR-8 ovarian): 3.04 µM
TGI (OVCAR-8 ovarian): 49.9 µM
GI50 (PC-3 prostate): 15 µM
TGI (PC-3 prostate): > 100 µM
GI50 (RXF 393 renal): 9.47 µM
TGI (RXF 393 renal): > 100 µM
GI50 (SF-268 CNS): 3.92 µM
TGI (SF-268 CNS): > 100 µM
GI50 (SF-295 CNS): 4.16 µM
TGI (SF-295 CNS): > 100 µM
GI50 (SK-MEL-2 melanoma): 31.1 µM
TGI (SK-MEL-2 melanoma): > 100 µM
GI50 (SK-MEL-28 melanoma): 24.1 µM
TGI (SK-MEL-28 melanoma): > 100 µM
GI50 (SK-MEL-5 melanoma): 3.07 µM
TGI (SK-MEL-5 melanoma): > 100 µM
GI50 (SN12C renal): 3.07 µM
TGI (SN12C renal): 14.5 µM
GI50 (SNB-19 CNS): 7.07 µM
TGI (SNB-19 CNS): > 100 µM
GI50 (SW-620 colon): 4.59 µM
TGI (SW-620 colon): > 100 µM
GI50 (T-47D breast): 8.55 µM
TGI (T-47D breast): > 100 µM
GI50 (TK-10 renal): 3.41 µM
TGI (TK-10 renal): 28.4 µM
GI50 (U251 CNS): 3.04 µM
TGI (U251 CNS): 9.32 µM
GI50 (UACC-257 melanoma): 12.2 µM
TGI (UACC-257 melanoma): 57.3 µM
GI50 (UACC-62 melanoma): 1.74 µM
TGI (UACC-62 melanoma): 6.06 µM
GI50 (UO-31 renal): 41 µM
TGI (UO-31 renal): > 100 µM
